Source: patent publication US9446027B2, “Use of pidotimod to treat irritable bowel syndrome” (POLICHEM SA, priority 2013, dated 2016)
Square brackets hold non-standard residues; d marks the D form. Peptide text beside a SMILES is read from it. pGlu = O=C1CC[C@@H](C(=O)O)N1; Thz = O=C(O)[C@@H]1CSCN1

Tested on: irritable bowel syndrome
Assay: Open label pilot trial in patients with IBS: overall and extracolonic IBS scores
Type: in vivo, human
Settings: nine IBS patients, oral solution of Example 4 twice a day, after 12 weeks
Excerpt: Nine patients with IBS aged 25 to 60 years (5 female) were enrolled in an open label pilot trial to receive twice a day the composition as per the Example 4. IBS was diagnosed according to Rome II criteria for the diagnosis of IBS (Rasquin-Weber A: Childhood functional gastrointestinal disorders, Gut 1999;45 (Suppl II): II60-II68). Rome II Criteria for the Diagnosis of IBS: at least 12 weeks, which need not be consecutive, in the preceding 12 months of abdominal discomfort or pain that has at least two of the following three features: • 1. Relieved by defecation. • 2. Onset associated with changes in stool frequency. • 3. Onset associated with changes in stool form.
The overall IBS scores (IBS Symptoms, Pain severity, Pain frequency, Bloating, Bowel habit dissatisfaction, Life interference) and extracolonic IBS scores were assessed at 4, 8, and 12 weeks during treatment.

## O=C1CC[C@@H](C(=O)N2CSC[C@H]2C(=O)O)N1 [Pidotimod, (4R)-3-(5-oxo-L-prolyl)-1,3-thiazolidine-4-carboxylic acid] ([pGlu]-[Thz]-OH)
Baseline 240, P<0.001
  post-treatment overall extracolonic IBS score: 90
Baseline 315, P<0.05
  overall IBS score (IBS Symptoms, Pain severity, Pain frequency, Bloating, Bowel habit dissatisfaction, Life interference): 175
